Results: article PMC7531004, “Discovery of gramicidin A analogues with altered activities by multidimensional screening of a one-bead-one-compound library” (Nature Communications, 2020)
Several values for one entry are separate records, joined by “and”; a condition that tells them apart may be missing. Equal values may be shown once. Read-outs that look alike come from different tables or passages of the source. Where a SMILES comes first, the peptide text is derived from it. [ ]: non-standard residue; d: D form. The star is where a group is joined. NHCH2CH2OH = OCCN*; For = O=C*

Tests used:
[1] = system: Streptococcus pyogenes SSI-9; test: Antibacterial activity assay of bead-derived peptides (three concentrations); assay type: cell-based; conditions: S. pyogenes
How it was run: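 Three stock dilutions per peptide (none, 4-fold, 16-fold in DMSO) are screened in 96-well format. The medium is blood-supplemented cation-adjusted MHB, inoculated with 2 × 10^5 CFU S. pyogenes SSI-9. Growth is read as cell precipitation at 18 h, 37 °C.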

[2] = system: P388 mouse leukemia cell line; conditions: 2 h
[3] = system: rabbit red blood cells; conditions: red cells of rabbit, 2 h
[4] = system: MSSA1 (methicillin-susceptible Staphylococcus aureus); assay type: cell-based
[5] = H+/Na+ transport assay of purified peptides; conditions: for Supplementary Figure 5 dose-response value (H+/Na+ transport): three replicate lines

Question: With CC(C)C[C@@H](NC(=O)[C@H](C)NC(=O)[C@H](NC(=O)[C@H](C)NC(=O)CNC(=O)[C@@H](NC=O)C(C)C)[C@H](C)O)C(=O)N[C@H](C(=O)N[C@H](CC(C)C)C(=O)N[C@@H](Cc1c[nH]c2ccccc12)C(=O)N[C@@H](C(=O)N[C@@H](Cc1c[nH]c2ccccc12)C(=O)N[C@H](CC(C)C)C(=O)N[C@@H](Cc1c[nH]c2ccccc12)C(=O)N[C@@H](C(=O)N[C@@H](Cc1c[nH]c2ccccc12)C(=O)NCCO)C(C)C)[C@H](C)O)C(C)C [B21] (For-VGA[dT]A[dL]V[dL]W[dT]W[dL]W[dV]W-NHCH2CH2OH) as the compound, how does the “antibacterial activity in the library screening” value [1] read?
Answer: The value was “Neither of these peptides exhibited growth inhibition activity”.

Question: And the IC50 [2]?
Answer: Its IC50 is greater than 1000 nM.

Question: And the “Hemolytic activity HC10 (concentration causing 10% hemolysis)” value [3]?
Answer: Its value is greater than 3000 nM.

Question: And the “antibacterial activity/MIC” value [4]?
Answer: Its value is 16 µg/mL.

Question: And the “Supplementary Figure 5 dose-response value (H+/Na+ transport)” value ([5]; concentration 0.000512 nM)?
Answer: Its value is 2.384 and 1.443 and 2.029.

Question: And the “Supplementary Figure 5 dose-response value (H+/Na+ transport)” value ([5]; concentration 0.00256 nM)?
Answer: The value was 3.95 and 1.0017 and 1.216.

Question: And the “Supplementary Figure 5 dose-response value (H+/Na+ transport)” value ([5]; concentration 0.0128 nM)?
Answer: The value was 7.632 and 2.998 and 3.58.

Question: What about the “Supplementary Figure 5 dose-response value (H+/Na+ transport)” value ([5]; concentration 0.064 nM) of the same compound?
Answer: The value was 6.775 and 3.579 and 3.365.

Question: What about the “Supplementary Figure 5 dose-response value (H+/Na+ transport)” value ([5]; concentration 0.32 nM) of the same compound?
Answer: Its value is 12.3823 and 9.367 and 13.3536.

Question: What about the “Supplementary Figure 5 dose-response value (H+/Na+ transport)” value ([5]; concentration 1.6 nM) of the same compound?
Answer: Its value is 41.7064 and 40.5042 and 40.751.

Question: And the “Supplementary Figure 5 dose-response value (H+/Na+ transport)” value ([5]; concentration 8 nM)?
Answer: The value was 73.419 and 69.4178 and 73.375.

Question: What about the “Supplementary Figure 5 dose-response value (H+/Na+ transport)” value ([5]; concentration 40 nM) of the same compound?
Answer: The value was 75.8465 and 74.348 and 76.0982.

Question: What about the “Supplementary Figure 5 dose-response value (H+/Na+ transport)” value ([5]; concentration 200 nM) of the same compound?
Answer: The value was 78.878 and 79.2127 and 80.049.

Question: And the “Supplementary Figure 5 dose-response value (H+/Na+ transport)” value ([5]; concentration 1000 nM)?
Answer: Its value is 81.8535 and 78.0432 and 78.4426.

Question: What about the “Supplementary Figure 5 dose-response value (H+/Na+ transport)” value ([5]; concentration 5000 nM) of the same compound?
Answer: The value was 82.5653 and 78.9179 and 76.8722.

Question: And the EC50 ([5]; read-out: EC50, H+/Na+ transport assay, 1st experiment)?
Answer: Its EC50 is 1.57 nM.

Question: What about the EC50 ([5]; read-out: EC50, H+/Na+ transport assay, 2nd experiment) of the same compound?
Answer: The EC50 was 1.58 nM.

Question: And the EC50 ([5]; read-out: EC50, H+/Na+ transport assay, 3rd experiment)?
Answer: The EC50 was 1.32 nM.

Question: What about the EC50 ([5]; read-out: H+/Na+ transport activity EC50, EYPC/EYPG (19:1) LUVs) of the same compound?
Answer: Its EC50 is 1.5 nM.

Question: What about the EC50 ([5]; read-out: H+/Na+ transport activity/EC50, mean ± SD of three independent experiments) of the same compound?
Answer: Its EC50 is 1.49 ± 0.15 nM.
